Experiments:
T-47D = assay: MTT test, T-47D; format: cell-based; conditions: Homo sapiens, T47D, 10^−5 M, 72 hours, control = 100%, mean ± SEM, read-out: average optical density (MTT), percentage relative to control
Protocol: (§1) The influence of the compounds of formulae (I) and (Ia) on non-clonogenic cells was evaluated with the aid of the MTT calorimetric test.
(§2) The principle of the MTT test is based on the mitochondrial reduction, by the metabolically active live cells, of the yellow-colored product MTT (3-(4,5-dimethylthiazol-2-yl)-2,5-diphenyltetrazolium bromide) to a blue-colored product, formazan. The amount of formazan thus obtained is directly proportional to the amount of live cells present in the culture well(s). This amount of formazan is measured by spectrophotometry.
(§3) The cell lines are maintained as a monolayer culture at 37° C. in stoppered culture dishes containing MEM 25 MM HEPES (Minimum Essential Medium) base medium. This medium is suited to the growth of a range of various mammalian diploid or primary cells. This medium is then supplemented with:
(§4) an amount of 5% of FCS (Foetal Calf Serum) decomplemented at 56° C. for 1 hour,
(§5) 0.6 mg/ml of L-glutamine,
(§6) 200 μg/ml of streptomycin,
(§7) The 12 human cancer cell lines which were used were obtained from the American Type Culture Collection (ATCC, Rockville, Md., USA). These 12 cell lines are:
(§8) T-47D (code ATCC: HTB-133) and MCF7 (code ATCC: HTB-22) which are two breast cancers,
(§9) Experimentally: 100 μl of a cell suspension containing 20 000 to 50 000 (depending on the cell type used) cells/ml of culture medium are inoculated in 96-well flat-bottomed multi-well plates and are incubated at 37° C., under an atmosphere comprising 5% CO2 and 70% humidity. After incubation for 24 hours, the culture medium is replaced with 100 μl of fresh medium containing either the various test compounds at concentrations ranging from 10^−5 to 10^−10 M or the solvent used to dissolve the test products (control condition). After incubation for 72 hours under the above conditions, the culture medium is replaced with 100 μl of a yellowish solution of MTT dissolved at a rate of 1 mg/ml in RPMI 1640. The microplates are reincubated for 3 hours at 37° C. and are then centrifuged for 10 minutes at 400×g. The yellowish solution of MTT is removed and the blue formazan crystals formed in the cell are dissolved in 100 μl of DMSO. The microplates are then shaken for 5 minutes. The intensity of the resulting blue coloration, and thus of the conversion of the yellow product MTT into blue formazan by the cells that are still alive at the end of the experiment, is quantified by spectrophotometry using a Dynatech Immunoassay System machine at wavelengths of 570 nm and 630 nm corresponding, respectively, to the maximum absorption wavelengths of formazan and to the background noise. Software incorporated in the spectrophotometer calculates the average optical density values and the standard deviation (SD) and standard error of mean (SEM) values.
(§10) By way of example, the results of the average optical density, expressed as a percentage relative to the average optical density measured under the control condition (set equal to 100%), obtained at a concentration of 10^−5 M on the 12 abovementioned tumor cell lines are given in Table II.

[1] = Determination of the maximum tolerated dose (MTD); conditions: mouse, in vivo, ip; B6D2F1/Jico mice; single intraperitoneal administration, 2.5 to 160 mg/kg; survival over 14 days
Protocol: 3.—Determination of the Maximum Tolerated Dose (MTD):
The evaluation of the maximum tolerated dose was carried out on 4- to 6-week-old B6D2F1/Jico mice. The compounds were administered intraperitoneally at increasing doses graduating from 2.5 to 160 mg/kg. The value of the MTD (expressed in mg/kg) is determined from the observation of the survival rate of the animals over a 14-day period after a single administration of the product under consideration. The weight change of the animals is also monitored during this period. When the value of the MTD is greater than 160 mg/kg, the MTD value is likened to 160 mg/kg by default.
The results of the estimation of the maximum tolerated dose (MTD) are collated in the following table: […]

PC-3 = assay: MTT test, PC-3; format: cell-based; conditions: Homo sapiens, 10^−5 M, 72 hours, control = 100%, mean ± SEM, read-out: average optical density (MTT), percentage relative to control
Protocol: as §1, §2, §3, §4, §5, §6, §7
PC-3 (code ATCC: CRL-1435) which is a prostate cancer.
as §9, §10

U-373MG = assay: MTT test, U-373MG; format: cell-based; conditions: Homo sapiens, U373 MG, 10^−5 M, 72 hours, control = 100%, mean ± SEM, read-out: average optical density (MTT), percentage relative to control
Protocol: as §1, §2, §3, §4, §5, §6, §7
(§11) U-373MG (code ATCC: HTB-17) and U-87MG (code ATCC: HTB-14) which are two glioblastomas,
as §9, §10

U-87MG = assay: MTT test, U-87MG; format: cell-based; conditions: Homo sapiens, 10^−5 M, 72 hours, control = 100%, mean ± SEM, read-out: average optical density (MTT), percentage relative to control
Protocol: as §1, §2, §3, §4, §5, §6, §7, §11, §9, §10

MCF7 = assay: MTT test, MCF7; format: cell-based; conditions: Homo sapiens, 10^−5 M, 72 hours, control = 100%, mean ± SEM, read-out: average optical density (MTT), percentage relative to control
Protocol: as §1, §2, §3, §4, §5, §6, §7, §8, §9, §10

J82 = assay: MTT test, J82; format: cell-based; conditions: Homo sapiens, 10^−5 M, 72 hours, control = 100%, mean ± SEM, read-out: average optical density (MTT), percentage relative to control
Protocol: as §1, §2, §3, §4, §5, §6, §7
(§12) J82 (code ATCC: HTB-1) and T24 (code ATCC: HTB-4) which are two bladder cancers,
as §9, §10

HCT-15 = assay: MTT test, HCT-15; format: cell-based; conditions: Homo sapiens, 10^−5 M, 72 hours, control = 100%, mean ± SEM, read-out: average optical density (MTT), percentage relative to control
Protocol: as §1, §2, §3, §4, §5, §6, §7
(§13) HTC-15 (code ATCC: CCL-225) and LoVo (code ATCC: CCL-229) which are two colorectal cancers,
as §9, §10

A-427 = assay: MTT test, A-427; format: cell-based; conditions: Homo sapiens, 10^−5 M, 72 hours, control = 100%, mean ± SEM, read-out: average optical density (MTT), percentage relative to control
Protocol: as §1, §2, §3, §4, §5, §6, §7
(§14) A549 (code ATCC: CCL-185) and A-427 (code ATCC: HTB-53) which are two non-small-cell lung cancers,
as §9, §10

LoVo = assay: MTT test, LoVo; format: cell-based; conditions: Homo sapiens, 10^−5 M, 72 hours, control = 100%, mean ± SEM, read-out: average optical density (MTT), percentage relative to control
Protocol: as §1, §2, §3, §4, §5, §6, §7, §13, §9, §10

A549 = assay: MTT test, A549; format: cell-based; conditions: Homo sapiens, 10^−5 M, 72 hours, control = 100%, mean ± SEM, read-out: average optical density (MTT), percentage relative to control
Protocol: as §1, §2, §3, §4, §5, §6, §7, §14, §9, §10

T24 = assay: MTT test, T24; format: cell-based; conditions: Homo sapiens, T-24, 10^−5 M, 72 hours, control = 100%, mean ± SEM, read-out: average optical density (MTT), percentage relative to control
Protocol: as §1, §2, §3, §4, §5, §6, §7, §12, §9, §10

SW1088 = assay: MTT test, SW1088; format: cell-based; conditions: Homo sapiens, 10^−5 M, 72 hours, control = 100%, mean ± SEM, read-out: average optical density (MTT), percentage relative to control
Protocol: as §1, §2, §3, §4, §5, §6, §7
SW1088 (code ATCC: HTB-12) which is an astrocytoma,
as §9, §10

SMILES	viability at 10 µM (T-47D)	MTD at 14 day [1]	viability at 10 µM (PC-3)	viability at 10 µM (U-373MG)	viability at 10 µM (U-87MG)	viability at 10 µM (MCF7)	viability at 10 µM (J82)	viability at 10 µM (HCT-15)	viability at 10 µM (A-427)	viability at 10 µM (LoVo)	viability at 10 µM (A549)	viability at 10 µM (T24)	viability at 10 µM (SW1088)
COc1ccc(-c2cc3c(OC)cc(OC)cc3n(C)c2=O)cc1 [CRL8244, 5,7-Dimethoxy-3-(4-methoxyphenyl)-1-methyl-1,2-dihydro-2-quinolinone]	105 ± 3%	> 160 mg/kg	83.2 ± 3.6%	69 ± 0.9%	97 ± 1%	75.9 ± 3.8%	88.5 ± 2.1%	76.8 ± 3%	93.6 ± 2.3%	78.2 ± 1.8%	98 ± 0.9%	88.7 ± 2.9%	81.3 ± 1.1%
COc1ccc(-c2cc3c(OC)cc(OC)cc3n(C)c2=S)cc1 [CRL8245, 5,7-Dimethoxy-3-(4-methoxyphenyl)-1-methyl-1,2-dihydro-2-quinolinethione]	59.6 ± 2.9%	> 160 mg/kg	74.4 ± 1.9%	63.7 ± 2.7%	58.6 ± 1.7%	46.9 ± 1%	31.1 ± 0.6%	35.8 ± 1.2%	69 ± 1.9%	65.5 ± 1.1%	74.1 ± 2.1%	51.1 ± 1.9%	75.1 ± 2%
COc1ccc(-c2cc3c(OC)cc(OC)cc3n(CCCN(C)C)c2=O)cc1 [CRL8254, 1-[3-(Dimethylamino)propyl]-5,7-dimethoxy-3-(4-methoxyphenyl)-1,2-dihydro-2-quinolinone]	55.2 ± 4.1%	> 160 mg/kg	97.9 ± 1.2%	7.6 ± 1.3%	105 ± 3.6%	81.9 ± 0.6%	87.8 ± 1%	94.4 ± 3.5%	20.2 ± 2.3%	91.8 ± 2.7%	96.9 ± 1.5%	103 ± 2.9%	128 ± 2.2%
COc1ccc(-c2cc3c(OC)cc(OC)cc3n(CC#N)c2=O)cc1 [CRL8255, [5,7-Dimethoxy-3-(4-methoxyphenyl)-2-oxo-1,2-dihydro-1-quinolinyl]acetonitrile]	73.7 ± 3.3%	> 160 mg/kg	77.7 ± 1.2%	68.5 ± 2.7%	72.5 ± 1.1%	71.5 ± 1.4%	36.2 ± 0.5%	58.7 ± 3%	76.3 ± 1.5%	56.9 ± 1.1%	79.1 ± 2.1%	79.5 ± 2.2%	67.5 ± 1.5%
COc1ccc(-c2cc3c(OC)cc(OC)cc3n(C)/c2=N\Nc2ccccn2)cc1 [CRL8266, 5,7-Dimethoxy-3-(4-methoxyphenyl)-1-methyl-1,2-dihydro-2-quinolinone-2-(2-pyridyl)hydrazone]	25 ± 4%	> 160 mg/kg	67.2 ± 0.9%	66.3 ± 1.6%	64.4 ± 1.2%	46.3 ± 2.6%	31.2 ± 0.7%	76.1 ± 1.5%	45.2 ± 2.2%	71.3 ± 4.5%	61.6 ± 3.5%	84.6 ± 3%	68.4 ± 1.6%
COc1ccc(-c2cc3c(OC)cc(OC)cc3n(C)/c2=N\Nc2ccccc2)cc1 [CRL8270, 5,7-Dimethoxy-3-(4-methoxyphenyl)-1-methyl-1,2-dihydro-2-quinolinone-2-phenylhydrazone]	22.9 ± 4.3%	> 160 mg/kg	49.4 ± 1.1%	52.2 ± 3.2%	75.6 ± 0.9%	51.5 ± 2.4%	42.5 ± 0.8%	58.8 ± 1.8%	30.8 ± 2.1%	80 ± 3.2%	52.2 ± 2.4%	51.1 ± 3.8%	50.7 ± 1.8%
COc1ccc(-c2cc3c(OC)cc(OC)cc3nc2S)cc1 [CRL8271, 5,7-Dimethoxy-3-(4-methoxhphenyl)-1,2-dihydro-2-quinolinethione]	90.9 ± 1.7%	> 160 mg/kg	107 ± 2.7%	96.2 ± 1.6%	78.5 ± 1.7%	106 ± 2.3%	75.9 ± 1.3%	87.2 ± 2.8%	84.1 ± 1.9%	94.2 ± 2.8%	94.2 ± 4.7%	107 ± 2.3%	102.2 ± 0.5%
COc1cc(OC)c2cc(-c3ccc(O)cc3)c(O)nc2c1 [CRL8284, 5,7-Dimethoxy-3-(4-hydroxyphenyl)-1,2-dihydro-2-quinolinone]	89.9 ± 1.9%	> 160 mg/kg	83.8 ± 1%	87.7 ± 1.4%	88.1 ± 2.2%	66.6 ± 2.7%	48.8 ± 0.7%	77.3 ± 1.8%	96 ± 2%	102 ± 1.3%	91.7 ± 1.6%	68.5 ± 0.9%	78.3 ± 1.6%

Source: patent US6593342B1, “Pharmaceutical compositions comprising 2-quinolones” (Laboratoire L. Lafon, priority 1998, dated 2003)
